Biological target: T1, hP2X2R (Homo sapiens, UniProt Q9UBL9)
T1 construct: gene P2RX2
T1 sequence (Q9UBL9 1-471): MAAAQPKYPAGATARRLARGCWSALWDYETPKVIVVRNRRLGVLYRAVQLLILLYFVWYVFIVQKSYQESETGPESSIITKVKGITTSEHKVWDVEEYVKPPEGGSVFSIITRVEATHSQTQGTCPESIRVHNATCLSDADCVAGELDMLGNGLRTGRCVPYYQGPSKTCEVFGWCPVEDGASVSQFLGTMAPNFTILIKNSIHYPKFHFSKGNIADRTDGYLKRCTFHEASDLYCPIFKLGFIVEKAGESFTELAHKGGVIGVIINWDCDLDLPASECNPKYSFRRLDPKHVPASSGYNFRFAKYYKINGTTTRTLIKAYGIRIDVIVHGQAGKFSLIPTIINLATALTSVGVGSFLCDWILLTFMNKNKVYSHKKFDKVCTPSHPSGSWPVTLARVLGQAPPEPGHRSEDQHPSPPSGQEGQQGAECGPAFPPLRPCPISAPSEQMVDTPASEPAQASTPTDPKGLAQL
Assay: Ca2+ imaging in cells expressing hP2X2R (outsourced selectivity assay)
Assay type: cell-based

O=C1CC(=O)N(c2cccc(-c3noc(=S)[nH]3)c2)c2ccc3ccccc3c2N1 [NP-1815-PX, 5-[3-(5-thioxo-4H-[1,2,4]oxadiazol-3-yl)phenyl]-1H-naphtho[1,2-b][1,4]diazepine-2,4(3H,5H)-dione]
IC50: 7.3 µM
